Measured values as given in PubChem BioAssay AID248 (DTP/NCI, 2004).
Values joined by “and” are separate entries in the source; they are usually repeats but may differ in a detail not shown here. Equal entries are not always repeated. Toxic doses and inconclusive results are not listed. No stated cut-off is given here; in the data, active means T/C of 150% or more; inactive means T/C below 125%.

Test system: L1210 leukemia ip in BDF1 mice, survival T/C
Test: NCI In Vivo Anticancer Drug Screen. Data for tumor model L1210 Leukemia (intraperitoneal) in B6D2F1 (BDF1) mice
Details: endpoint: mean survival time, higher = longer survival
Outline: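 Tumor was transplanted into mice, which were then dosed with test compound or vehicle alone. Survival was recorded for each group, and the treated figure was expressed relative to the control figure.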

[1] = dose: 100.0 mg/kg/injection, schedule: Q04DX003 (ip), vehicle: Klucel (hydroxypropylcellulose) (HPC)
[2] = dose: 200.0 mg/kg/injection, schedule: Q04DX003 (ip), vehicle: Klucel (hydroxypropylcellulose) (HPC)
[3] = dose: 400.0 mg/kg/injection, schedule: Q04DX003 (ip), vehicle: Klucel (hydroxypropylcellulose) (HPC)
[4] = dose: 100.0 mg/kg/injection, schedule: Q01DX009 (ip), vehicle: Klucel (hydroxypropylcellulose) (HPC)
[5] = dose: 200.0 mg/kg/injection, schedule: Q01DX009 (ip), vehicle: Klucel (hydroxypropylcellulose) (HPC)
[6] = dose: 400.0 mg/kg/injection, schedule: Q01DX009 (ip), vehicle: Klucel (hydroxypropylcellulose) (HPC)
[7] = dose: 100.0 mg/kg/injection, schedule: Q01DX001 (ip), vehicle: saline
[8] = dose: 200.0 mg/kg/injection, schedule: Q01DX001 (ip), vehicle: saline
[9] = dose: 400.0 mg/kg/injection, schedule: Q01DX001 (ip), vehicle: saline

Measured: T/C

C[CH2][Pb]([Br])([CH2]C)[CH2]C
inactive: dose: 6.25 mg/kg/injection, schedule: Q01DX009 (ip), vehicle: saline with Tween-80 103 % of control | dose: 12.5 mg/kg/injection, schedule: Q01DX009 (ip), vehicle: saline with Tween-80 103 % of control | dose: 25.0 mg/kg/injection, schedule: Q01DX009 (ip), vehicle: saline with Tween-80 94 % of control and 103 % of control | dose: 25.0 mg/kg/injection, schedule: Q04DX002 (ip), vehicle: saline with Tween-80 93 % of control | dose: 50.0 mg/kg/injection, schedule: Q04DX002 (ip), vehicle: saline with Tween-80 99 % of control | dose: 100.0 mg/kg/injection, schedule: Q04DX002 (ip), vehicle: saline with Tween-80 96 % of control

O=C(O)C(Br)C(Br)C(=O)O (stereo not drawn)
inactive: dose: 100.0 mg/kg/injection, schedule: Q04DX002 (ip), vehicle: saline 92 % of control | [1] 97 % of control | dose: 200.0 mg/kg/injection, schedule: Q04DX002 (ip), vehicle: saline 100 % of control | [2] 103 % of control | [3] 95 % of control

CC1CCS(=O)(=O)CC1.[Cl][Hg][Cl]
inactive: dose: 0.31 mg/kg/injection, schedule: Q01DX009 (ip), vehicle: saline 95 % of control | dose: 0.62 mg/kg/injection, schedule: Q01DX009 (ip), vehicle: saline 86 % of control | dose: 1.25 mg/kg/injection, schedule: Q01DX009 (ip), vehicle: saline 91 % of control

CN(C)CCCNc1c2ccccc2nc2ccccc12
inactive: dose: 5.0 mg/kg/injection, schedule: Q01DX001 (ip), vehicle: saline 109 % of control | dose: 10.0 mg/kg/injection, schedule: Q01DX001 (ip), vehicle: saline 104 % of control | dose: 20.0 mg/kg/injection, schedule: Q01DX001 (ip), vehicle: saline 98 % of control | dose: 40.0 mg/kg/injection, schedule: Q01DX001 (ip), vehicle: saline 91 % of control

O=C(Nc1ccsn1)c1ccc(Cl)cc1Cl
inactive: dose: 50.0 mg/kg/injection, schedule: Q01DX009 (ip), vehicle: saline with Tween-80 111 % of control | dose: 100.0 mg/kg/injection, schedule: Q01DX009 (ip), vehicle: saline with Tween-80 91 % of control | dose: 200.0 mg/kg/injection, schedule: Q01DX009 (ip), vehicle: saline with Tween-80 91 % of control

O=[N+]([O-])c1cccc(-c2nc3ncncc3[nH]2)c1
inactive: dose: 50.0 mg/kg/injection, schedule: Q01DX001 (ip), vehicle: saline with Tween-80 102 % of control | dose: 100.0 mg/kg/injection, schedule: Q01DX001 (ip), vehicle: saline with Tween-80 101 % of control | dose: 200.0 mg/kg/injection, schedule: Q01DX001 (ip), vehicle: saline with Tween-80 98 % of control

Cc1noc2c1CCCC2
inactive: dose: 100.0 mg/kg/injection, schedule: Q04DX003 (ip), vehicle: carboxymethylcellulose (CMC) 103 % of control | dose: 200.0 mg/kg/injection, schedule: Q04DX003 (ip), vehicle: carboxymethylcellulose (CMC) 106 % of control

COc1cccc(C(=O)C(CCC#N)c2ccccc2)c1 (stereo not drawn)
inactive: [4] 98 % of control | [1] 106 % of control | [5] 98 % of control | [2] 100 % of control | [6] 96 % of control | [3] 95 % of control

O=C(NCc1ccccc1)Nc1ccccc1F
inactive: [4] 110 % of control | [5] 110 % of control | [6] 104 % of control

O=C(OC1CCC/C=C\CCCC1)c1ccc([N+](=O)[O-])cc1 (stereo not drawn)
inactive: [7] 93 % of control | [8] 98 % of control | [9] 96 % of control

CCCNC(=O)Nc1ccccc1OC
inactive: dose: 100.0 mg/kg/injection, schedule: Q04DX002 (ip), vehicle: Klucel (hydroxypropylcellulose) (HPC) 97 % of control | dose: 200.0 mg/kg/injection, schedule: Q04DX002 (ip), vehicle: Klucel (hydroxypropylcellulose) (HPC) 87 % of control | dose: 400.0 mg/kg/injection, schedule: Q04DX002 (ip), vehicle: Klucel (hydroxypropylcellulose) (HPC) 94 % of control

COc1ccc(C(O)CNC(=O)c2ccccc2)cc1 (stereo not drawn)
inactive: dose: 25.0 mg/kg/injection, schedule: Q04DX003 (ip), vehicle: Klucel (hydroxypropylcellulose) (HPC) 102 % of control | dose: 50.0 mg/kg/injection, schedule: Q04DX003 (ip), vehicle: Klucel (hydroxypropylcellulose) (HPC) 97 % of control | [7] 96 % of control | [1] 87 % of control | [8] 104 % of control | [9] 98 % of control | [3] 109 % of control
